# Patent US4515767A, “Radioactive metals complexed with phosphonate derivatives of dicyclopentadienebis(methylamine)” (The Dow Chemical Company, priority 1983, dated 1985)
# What was measured:
# [1] = Uptake in end bone and midbone of femur in anesthetized rats, NaI scintillation counting (Table II); type: in vivo; conditions: vein, 120 minutes; for % Dose/gram End Bone: femur ends; for % Dose/gram Midbone: femur mid-section; for End-/Mid-bone: femur, ratio of end bone to midbone
# Procedure: Fifty μl of the complex prepared in Example 1 was injected into the vein of anesthetized laboratory rats. After 120 minutes the animals were killed and the femurs removed. The ends of the bones were cut away from the mid-section and each section was weighed and analyzed separately. The amount of activity in the bone sections was quantitated using NaI scintillation counting. The results were compared to those of complexes prepared from commercial diphosphonate kits (Table II).
# [2] = after intravenous administration; cited from earlier work
Compound,% Dose/gram End Bone [1],% Dose/gram Midbone [1],End-/Mid-bone [1],accumulation by bone (in words) [2]
"O=P(O)(O)OP(=O)(O)O [PYP, pyrophosphate]",3.50 % Dose/gram,1.78 % Dose/gram,1.97,–
"[85Sr] [Sr-85, Strontium-85]",–,–,–,rapidly accumulated by bone
methylenediphosphonate [MDP],3.95 % Dose/gram,1.90 % Dose/gram,2.08,–
"CC(O)(P(=O)(O)O)P(=O)(O)O [EHDP, hydroxyethanediphosphosphonate]",3.40 % Dose/gram,1.46 % Dose/gram,2.33,–
